Legend:
[1] = target: HIS-TGFβR1 T204D (Homo sapiens (Human), UniProt P36897, T204D); experiment: HTRF probe displacement assay, HIS-TGFβR1 T204D; assay type: binding; details: 1 nM HIS-TGFβR1 T204D, 1 hour at room temperature, read-out: TGFBR1T204D IC50
Method: (§1) Compounds were dissolved at 10 mM in dimethylsulfoxide (DMSO) and evaluated at eleven concentrations. IC50 values were derived by non-linear regression analysis.

[2] = target: HIS-TGFβR2 WT (Homo sapiens (Human), UniProt P37173); experiment: HTRF probe displacement assay, HIS-TGFβR2 WT; assay type: binding; details: 1 nM HIS-TGFβR2 WT, 1 hour at room temperature, read-out: TGFBR2WT IC50
Method: as §1

HIS-TGFβR2 WT, sequence (P37173 23-567): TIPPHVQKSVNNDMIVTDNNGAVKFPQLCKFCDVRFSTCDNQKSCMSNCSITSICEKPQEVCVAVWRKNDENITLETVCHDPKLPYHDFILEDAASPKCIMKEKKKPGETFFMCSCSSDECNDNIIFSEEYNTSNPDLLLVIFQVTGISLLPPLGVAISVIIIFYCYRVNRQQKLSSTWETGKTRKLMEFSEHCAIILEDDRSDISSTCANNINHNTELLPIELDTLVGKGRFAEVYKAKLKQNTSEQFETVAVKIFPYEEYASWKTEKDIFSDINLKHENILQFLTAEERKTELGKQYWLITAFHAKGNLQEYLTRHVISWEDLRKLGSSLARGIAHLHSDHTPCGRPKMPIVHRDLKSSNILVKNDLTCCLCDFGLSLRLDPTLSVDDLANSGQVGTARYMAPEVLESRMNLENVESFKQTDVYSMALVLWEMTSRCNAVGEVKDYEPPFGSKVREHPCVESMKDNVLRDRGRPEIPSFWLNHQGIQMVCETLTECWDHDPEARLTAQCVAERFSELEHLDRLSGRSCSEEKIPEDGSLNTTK
HIS-TGFβR1 T204D, sequence (P36897 34-503 T204D): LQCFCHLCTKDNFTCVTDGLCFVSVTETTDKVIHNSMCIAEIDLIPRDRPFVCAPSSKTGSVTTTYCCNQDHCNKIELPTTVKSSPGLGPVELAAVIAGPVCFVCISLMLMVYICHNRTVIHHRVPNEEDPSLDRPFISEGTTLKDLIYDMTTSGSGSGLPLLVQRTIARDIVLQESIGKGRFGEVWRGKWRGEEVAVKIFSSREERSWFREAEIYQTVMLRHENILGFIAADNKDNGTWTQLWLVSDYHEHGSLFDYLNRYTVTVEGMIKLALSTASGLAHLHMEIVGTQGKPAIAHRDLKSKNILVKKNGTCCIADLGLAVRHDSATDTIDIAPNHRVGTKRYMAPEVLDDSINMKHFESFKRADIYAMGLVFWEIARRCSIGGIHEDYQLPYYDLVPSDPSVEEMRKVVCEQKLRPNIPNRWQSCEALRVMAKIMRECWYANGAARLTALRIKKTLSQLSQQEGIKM

| Structure (SMILES) | IC50 [1] [nM] | IC50 [2] [nM] |
| --- | --- | --- |
| Cc1nc(-c2ncccc2-c2ccn3ncc(C(=O)NC4COC4)c3n2)ccc1F [Compound 133, 5-(5′-fluoro-6′-methyl-[2,2′-bipyridin]-3-yl)-N-(oxetan-3-yl)pyrazolo[1,5-a]pyrimidine-3-carboxamide] | 24 | > 15000 |
| Cc1nc(-c2ncccc2-c2ccc3[nH]ncc3c2)ccc1F [Compound 117, 5-(5′-fluoro-6′-methyl-[2,2′-bipyridin]-3-yl)-1H-indazole] | 2 | > 15000 |
| Cc1nc(-c2ncccc2-c2ccn3nccc3n2)ccc1F [Compound 137, 5-(5′-fluoro-6′-methyl-[2,2′-bipyridin]-3-yl)pyrazolo[1,5-a]pyrimidine] | 8 | > 15000 |
| Cc1cccc(-c2ncccc2-c2ccc3ncc(C(=O)NC4CC4)n3n2)n1 [Compound 75, N-cyclopropyl-6-(6′-methyl-[2,2′-bipyridin]-3-yl)imidazo[1,2-b]pyridazine-3-carboxamide] | 25 | > 15000 |
| FC(F)c1cccc(-c2ncccc2-c2ccc3[nH]nc(C(F)F)c3c2)n1 [Compound 118, 3-(difluoromethyl)-5-(6′-(difluoromethyl)-[2,2′-bipyridin]-3-yl)-1H-indazole] | 427 | > 15000 |
| N#Cc1cnc2ccc(-c3cccnc3-c3ccc(F)cn3)nn12 [Compound 53, 6-(5′-fluoro-[2,2′-bipyridin]-3-yl)imidazo[1,2-b]pyridazine-3-carbonitrile] | 605 | > 15000 |
| Cc1cccc(-c2ncccc2-c2ccc3ncc(C(=O)NCC(F)(F)F)n3c2)n1 [Compound 69, 6-(6′-methyl-[2,2′-bipyridin]-3-yl)-N-(2,2,2-trifluoroethyl)imidazo[1,2-a]pyridine-3-carboxamide] | 7 | > 15000 |
| Cc1cccc(-c2ncccc2-c2ccc3ncc(C(=O)NCC(F)F)n3c2)n1 [Compound 68, N-(2,2-difluoroethyl)-6-(6′-methyl-[2,2′-bipyridin]-3-yl)imidazo[1,2-a]pyridine-3-carboxamide] | 4 | > 15000 |
| COc1cccc(-c2ncccc2-c2ccc3ncc(C#N)n3c2)n1 [Compound 17, 6-(6′-methoxy-[2,2′-bipyridin]-3-yl)imidazo[1,2-a]pyridine-3-carbonitrile] | 9 | > 15000 |
| Cc1cccc(-c2nc(C(F)(F)F)ccc2-c2ccc3ncc(C#N)n3c2)n1 [Compound 89, 6-(6′-methyl-6-(trifluoromethyl)-[2,2′-bipyridin]-3-yl)imidazo[1,2-a]pyridine-3-carbonitrile] | 3360 | > 15000 |
| Nc1ncnc2ccc(-c3cccnc3-c3cccc(C4CC4)n3)cc12 [Compound 111] | 2 | > 15000 |
| CC(=O)Nc1ccnc(-c2cccc(C)n2)c1-c1ccc2ncc(C(N)=O)n2c1 [Compound 102, 6-(4-acetamido-6′-methyl-[2,2′-bipyridin]-3-yl)imidazo[1,2-a]pyridine-3-carboxamide] | 716 | > 15000 |
| CC(=O)Nc1cnc(-c2cccc(C)n2)c(-c2ccc3ncc(C#N)n3c2)c1 [Compound 96, N-(3-(3-cyanoimidazo[1,2-a]pyridin-6-yl)-6′-methyl-[2,2′-bipyridin]-5-yl)acetamide] | 43 | > 15000 |
| Cc1cccc(-c2ncccc2-c2ccc3ncc(C(=O)O)n3n2)n1 [Compound 73, 6-(6′-methyl-[2,2′-bipyridin]-3-yl)imidazo[1,2-b]pyridazine-3-carboxylic acid] | 26 | > 15000 |
| Cc1nc(-c2ncccc2-c2ccc3ncnc(N)c3n2)ccc1F [Compound 103, 6-(5′-fluoro-6′-methyl-[2,2′-bipyridin]-3-yl)pyrido[3,2-d]pyrimidin-4-amine] | 4 | > 15000 |
| Cc1cccc(-c2ncccc2-c2ccn3ncc(C#N)c3n2)n1 [Compound 119, 5-(6′-methyl-[2,2′-bipyridin]-3-yl)pyrazolo[1,5-a]pyrimidine-3-carbonitrile] | 59 | > 15000 |
